# Structures can show the parent of a compound that is named as a salt.
# Assays:
# [1] = tested on: acute miocardial infarction caused by ligation of coronary artery; assay: Acute miocardial infarction by coronary artery ligation in canines (Example 3); assay type: in vivo, Adult hybrid canines; conditions: canine; for Infarction size/heart size (%) / Infarction size/ventricles size (%): n=2
# Description: (§1) Methods: Applying the model of acute miocardial infarction caused by ligation of coronary artery, detecting miocardial infarction scope, coronary arterial flow and myocardial consumption of oxygen to observe the curative effect of MPD injection.
# Canine was anaesthetized by 3% Pentobarbital Sodium (1 mL/kg), opening the chest, exposing the heart and making up a arcula cordis bed; leading on an epicardial electrode and then ligating the root of the left anterior descending of coronary artery (LADCA). Venous cannula on thigh was administered to inject drug, arterial cannula on cervical and pipe from external jugular vein to vena coronaria sinus were administered, thus the blood was obtained separately and AtV oxygen content were measured.
# 2.2.3 Six canines were randomly divided into model control group (injecting physiological saline 1 mL/1 kg by femoral vein), positive control group (Diltiazem Hydrochloride solution 0.5 mg/kg) and MPD treated group (20 mg/kg by femoral vein), two canines per group. The data of N-ST, Σ-ST, the blood oxygen content of vena coronaria sinus and artery, and the scope of miocardial infarction of pro-administration were collected after administration at once, and 5, 15, 30, 60, 120, 180 minutes after administration.
# Epicardial electrogram: recording the change of N-ST and Σ-ST.
# (§2) Determining the scope of miocardial infarction (N-BT staining method): quickly taking out the heart from the executed animal, then washing by physiologic saline and dewatering with filter paper, the heart was cut into 4 pieces uniformly from apex of heart to ligating thread, then the pieces were put into N-BT staining solution, keeping in common temperature, avoiding light in 2 minutes. Then measuring the size of each slice, and the size of miocardial infarction (non-staining zone with N-BT) by colorful multimedia patho-image analytical system, total area of ventricular muscle, total area of infarction of ventricular muscle, and the ratio of miocardial infarction size relative to the size of ventricles were measured respectively.
# [2] = tested on: Rat model of AMI; assay: Rat model of AMI by ligating of coronary artery, PPD and MPD by pouring to stomach (Example 4); assay type: in vivo, Wistar rats; conditions: for Death rate in operation / Infarction size/whole heart size (%): experiment 2 (repeated), 40 mg/kg by pouring to stomach
# Description: (§3) Methods: Rat model of AMI was established by ligating of coronary artery.
# (§4) Rat was anaesthetized by 3.5% chloral hydrate (10 mL/kg, by weight), then linking to electric-respirator, scraping off the fur of chest, opening thoracic cavity, exposing cardiac pericardium and then ligating the root of the left anterior descending of coronary artery (LADCA).
# (§5) 12 rats were randomly divided into model control group (physiological saline 5 mL/kg by pouring down throat) and PPD treated group (40 mg/5 mL/kg, by pouring to stomach), 6 rats per group. Rats were administrated one time after ligating, then be executed 24 hours later.
# as §5, with “24” for “12”, “to stomach), MPD treated group (40 mg/5 mL/kg, by pouring to stomach)” for “down throat)”, “stomach).” for “stomach), 6 rats per group.”
# as §2, with “5” for “4”
# [3] = tested on: Rat model of AMI; assay: Rat model of AMI by ligating of coronary artery, MPD, PPD and MPD+PPD mixture (Example 5); assay type: in vivo, Wistar rats; conditions: 40 mg/kg by pouring to stomach, one time after ligating, 24 h, relative to size of ventricles
# Description: as §3, §4
# 33 rats were randomly divided into model control group (physiological saline 5 mL/kg by pouring down throat), MPD treated group (40 mg/5 mL/kg, by pouring to stomach), PPD treated group (40 mg/5 mL/kg, by pouring to stomach) and MPD+PPD treated group (40 mg/5 mL/kg, by pouring to stomach). […]
# as §2, with “5” for “4”
# [4] = tested on: acute miocardial infarction caused by ligation of coronary artery; assay: Acute miocardial infarction by coronary artery ligation in rats, MPD injection (Example 3); assay type: in vivo, Wistar rats; conditions: rat, n=10
# Description: as §1, §4
# 2.2.1 Preliminary experiment: twenty rats were randomly divided into model control group (injecting physiological saline 3 mL/kg by vena caudalis) and MPD treated group (40 mg/kg, i.v), ten rats per group.
# 2.2.2 Repeated experiment: fifty rats were randomly divided into model control group (injecting physiological saline 3 ml/kg by vena caudalis), Di'ao Xinxuekang group (administering 40 mg/kg by intragastric administration), MPD dose-intensive group (80 mg/kg by vena caudalis injection), MPD moderate dose group (40 mg/kg) and MPD low-dose group (20 mg/kg), ten rats per group. Rats were treated after 30 minutes of preparing model successfully, and were executed after 24 hours, and observing the results.
# as §2
# [5] = 20 mg/kg by femoral vein, 20 mg/kg
Structure (SMILES),"N-ST (epicardial electrogram) comparing with control group ([1]; 20 mg/kg by femoral vein, FIG. 4)","flow of aeteria coronaria comparing with control group ([1]; 20 mg/kg by femoral vein, FIG. 6)","miocardial consumption of oxygen (MCO) comparing with control group ([1]; 20 mg/kg by femoral vein, FIG. 7)","Infarction size/heart size (%) [1, 5] [%]","Infarction size/ventricles size (%) [1, 5] [%]",Death rate in operation [2],"Infarction size/whole heart size (%) ([2]; one time after ligating, 24 h)",infarct size (IS) (%) [3] [%],"miocardial infarction size/ventricular size (%) ([4]; preliminary experiment, 40 mg/kg i.v., X ± SD, 40 mg/kg)","miocardial infarction size/ventricular size (%) ([4]; repeated experiment, dose-intensive 80 mg/kg by vena caudalis injection, 24 h)","miocardial infarction size/ventricular size (%) ([4]; repeated experiment, low-dose 20 mg/kg by vena caudalis injection, 24 h, 20 mg/kg)","miocardial infarction size/ventricular size (%) ([4]; repeated experiment, moderate dose 40 mg/kg by vena caudalis injection, 24 h, 40 mg/kg)","miocardial infarction size/ventricular size (%) ([2]; experiment 1, 40 mg/kg by pouring to stomach, one time after ligating, 24 h, n=6, 40 mg/kg)",Infarction size/heart size (%) ([1]; 0.5 mg/kg),Infarction size/ventricles size (%) ([1]; 0.5 mg/kg)
"CO[C@]1(CC[C@@H](C)CO[C@@H]2O[C@H](CO)[C@@H](O)[C@H](O)[C@H]2O)O[C@H]2C[C@H]3[C@@H]4CC=C5C[C@@H](O[C@@H]6O[C@H](CO)[C@@H](O[C@@H]7O[C@@H](C)[C@H](O)[C@@H](O)[C@H]7O)[C@H](O)[C@H]6O[C@@H]6O[C@@H](C)[C@H](O)[C@@H](O)[C@H]6O)CC[C@]5(C)[C@H]4CC[C@]3(C)[C@H]2[C@@H]1C [MPD, Methylprotodioscin]",no significant difference,no significant difference,no significant difference,2.74±0.33,7.30±0.97,0% (0/8),33.71 ± 6.73,36.24±3.74,33.4±8.09,30.62±9.46,37.89±8.41,32.32±6.92,,,
"CC1=C(CC[C@@H](C)CO[C@@H]2O[C@H](CO)[C@@H](O)[C@H](O)[C@H]2O)O[C@H]2C[C@H]3[C@@H]4CC=C5C[C@@H](O[C@@H]6O[C@H](CO)[C@@H](O[C@@H]7O[C@@H](C)[C@H](O)[C@@H](O)[C@H]7O)[C@H](O)[C@H]6O[C@@H]6O[C@@H](C)[C@H](O)[C@@H](O)[C@H]6O)CC[C@]5(C)[C@H]4CC[C@]3(C)[C@@H]12 [PPD, Pseudoprotodioscin]",,,,,,14.3% (1/7),36.31 ± 1.90,36.31±1.90,,,,,36.25±7.20,,
"COc1ccc([C@@H]2Sc3ccccc3N(CCN(C)C)C(=O)[C@@H]2OC(C)=O)cc1 [Diltiazem Hydrochloride, reference compound]",,,,,,,,,,,,,,1.81 ± 0.79,4.36 ± 1.15

# From US20070213280A1, “Steroidal Saponins Compound, the Process for Producing the Same and the Use Thereof” (GUILIN INNOVATIVE MEDICINES INVESTMENT LTD., CO., priority 2004, published 2007)
